# From US20090099243A1, “ORGANIC COMPOUNDS” (priority 2007, published 2009)
# Molecular target: T1, recombinant human NPY Y2 receptors (Homo sapiens, UniProt P49146)
# T1 construct: expressed in transfected cells; host or cells: CHO-C4 cells (membrane preparation)
# T1 sequence (P49146 1-381): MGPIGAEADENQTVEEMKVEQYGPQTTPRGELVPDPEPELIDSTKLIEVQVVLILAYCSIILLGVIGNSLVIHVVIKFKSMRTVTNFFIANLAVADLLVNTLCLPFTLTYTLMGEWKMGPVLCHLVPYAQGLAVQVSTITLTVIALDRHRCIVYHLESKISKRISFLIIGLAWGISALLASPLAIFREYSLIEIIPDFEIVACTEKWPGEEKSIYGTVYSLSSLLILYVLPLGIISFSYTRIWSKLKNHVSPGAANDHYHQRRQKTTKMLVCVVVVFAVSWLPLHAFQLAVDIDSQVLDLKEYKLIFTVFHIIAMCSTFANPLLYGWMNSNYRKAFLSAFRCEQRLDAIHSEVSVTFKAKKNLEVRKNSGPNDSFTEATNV
# Assay: Scintillation proximity [35S]GTPγS binding assay (inhibition of 0.5 nM NPY-stimulated [35S]GTPγS binding)
# Assay type: biochemical
# Settings: 10 μM compound, CHO-C4 membranes
# Protocol: Preparation of Membranes: CHO—C4 cells expressing recombinant human NPY Y2 receptors were used to prepare membranes for the GTPγS assay. Cells were grown to 80-95% confluency on 15-cm (225 cm^2) tissue culture plates. After aspiration of the culture medium, cells were washed twice with 18 ml ice-cold phosphate-buffered saline (PBS), scraped off and suspended in 3 ml ice-cold PBS in pre-cooled centrifuge tubes. The dishes were rinsed with 2 ml ice-cold PBS per dish and the washings were combined with the PBS cell suspension from above. Cells pooled from 5-7 dishes were centrifuged for 5 min at 10,000 rpm (12,000 g) in a Sorvall RC5B centrifuge using an SS34 rotor at 4° C. The cell pellet was resuspended in 5 ml ice-cold buffer (20 mM HEPES, 10 mM EDTA; pH 7.4) by vortexing (2-5 sec), homogenized using a Polytron (step 4 for 20-30 sec), and ice-cold buffer added to 25 ml. The suspension was centrifuged again for 20 min at 18,000 rpm (39,000 g) at 4° C. and the pellet resuspended in 5 ml ice-cold buffer (20 mM HEPES, 0.1 mM EDTA; pH 7.4) by vortexing (2-5 sec), homogenized with a Polytron (step 4 for 10 sec), and ice-cold buffer added to 25 ml. The suspension was centrifuged a third time for 20 min at 18,000 rpm (39,000 g) at 4° C. The pellet was resuspend in 1 ml ice-cold buffer (20 mM Hepes, 0.1 mM EDTA; pH 7.4) by vortexing (5-8 sec). Two to five resuspended pellets were combined and homogenized using a Polytron (step 4 for 15-25 sec). A small aliquot (20-50 μl) was removed for protein determination by the Coomassie Plus Protein Assay Reagent (Pierce) using BSA as standard. The membrane suspension was aliquoted in pre-cooled (on dry ice) Eppendorf tubes (0.25-1 ml/tube affording approximately 0.5-2 mg of membrane protein/tube). The pellets were frozen and stored at −80° C.
# Scintillation proximity [^35S]GTPγS binding assay: Frozen membranes from CHO—C4 cells expressing recombinant human NPY Y2 receptors (2 mg for four 96-well plates) were thawed on ice. Thawed membranes were pipetted into 10 ml of assay buffer (20 mM. HEPES, 10 mM MgCl2, 100 mM NaCl, pH 7.4) and homogenized briefly using a Polytron. The final assay mixture was prepared in 96-well microtiter plates (Isoplate Wallac, Perkin Elmer). The composition of the assay mixtures in a final volume of 250 μl per well was as follows: 20 mM HEPES, 10 mM MgCl2, 100 mM NaCl, pH 7.4, 30 μM GDP, 1 mg/ml BSA (added fresh), 5 μg membrane protein, 1.5 mg Wheatgerm agglutinin SPA beads (Amersham), 0.45 nM [^35S]GTPγS (Amersham, SJ1308, 1000 Ci/mmol, stabilized solution), and the test compounds (agonists and/or antagonists) at the appropriate concentrations. The samples were incubated at room temperature for 90 min by shaking, after which the SPA beads were sedimented by centrifugation in an Eppendorf 5804 centrifuge at 2700 rpm for 10 min at room temperature. After 60 min the plates were counted in a TopCount (Canberra). Basal [^35S]GTPγS binding was measured in the absence of agonist (NPY). Non-specific binding was measured in the presence of excess (10 μM) unlabelled GTPγS (Sigma). Nonspecific binding never exceeded 10% of basal binding and was thus not subtracted from the experimental data. Antagonists were tested for the inhibition of 0.5 nM NPY-stimulated [^35S]GTPγS binding. Antagonist inhibition curves were analyzed by non-linear regression using GraphPad Prism software (Version 4.0, GraphPad Software Inc., CA, USA).
# Antagonistic activity of compounds of the present invention was examined by the Scintillation proximity [35S]GTPγS binding assay as described above (inhibition of 0.5 nM NPY-stimulated [^35S]GTPγS binding). The table below represents percentages of inhibition at a concentration of 10 μM.
row,[%] inhibiton at 10 μM [%],SMILES
1,60,"COc1ccc(CC(=O)Nc2ccc(C(=O)CN3C(=O)NC(c4ccccc4)(c4ccc(C)cc4)C3=O)cc2)c(OC)c1 (racemic) [Example 41, (±)-2-2,4-Dimethoxy-phenyl)-N-{4-[2-(2,5-dioxo-4-phenyl-4-p-tolyl-imidazolidin-1-yl)-acetyl]-phenyl}-acetamide]"
2,90,"CCCC1(c2ccccc2)NC(=O)N(CC(=O)c2ccc(NC(=O)C(CC)CC)cc2)C1=O (single isomer, unassigned; (+)) [Example 32]"
3,99,"CCCC1(c2ccccc2)NC(=O)N(CC(=O)c2ccc(NC(=O)Cc3c(C)noc3C)cc2)C1=O (single isomer, unassigned; (-)) [Example 29]"
4,97,"CCCC1(c2ccccc2)NC(=O)N(CC(=O)c2ccc(NC(=O)C(CC)CC)cc2)C1=O (single isomer, unassigned; (-)) [Example 31]"
5,96,"Cc1noc(C)c1CC(=O)Nc1ccc(C(=O)CN2C(=O)NC(c3ccccc3)(c3ccccc3)C2=O)cc1 [Example 27, 2-(3,6-Dimethyl-isoxazol-4-yl)-N-{4-[2-(2,5-dioxo-4,4-diphenyl-imidazolidin-1-yl)-acetyl]-phenyl}-acetamide]"
6,98,"Cc1noc(C)c1NC(=O)Nc1ccc(C(=O)CN2C(=O)NC(c3ccccc3)(c3ccccc3)C2=O)c(F)c1 [Example 28, 1-(3,5-Dimethyl-isoxazolyl-4-yl)-3-{4-[2-(2,5-dioxo-4,4-diphenyl-imidazolidin-1-yl)-acetyl]-3-fluoro-phenyl}-urea]"

# Same assay, conditions: 10 μM compound, CHO-C4 membranes, read-out: [%] inhibiton at 10 μM
row,inhibition at 10 µM [%],SMILES
1,105,"CCCC1(c2ccccc2)NC(=O)N(CC(=O)c2ccc(NC(=O)Nc3c(C)noc3C)cc2F)C1=O (racemic) [Example 1, (±)-1-(3,5-Dimethyl-isoxazol-4-yl)-3-{4-[2-(2,5-dioxo-4-phenyl-4-propyl-imidazolidin-1-yl)-acetyl]-3-fluoro-phenyl}-urea]"
2,98,"CCC1(c2ccccc2)NC(=O)N(CC(=O)c2ccc(NC(=O)Nc3c(C)noc3C)cc2)C1=O (racemic) [Example 2, (±)-1-(3,5-Dimethyl-isoxazol-4-yl)-3-{4-[2-(4-ethyl-2,5-dioxo-4-phenyl-imidazolidin-1-yl)-acetyl]-phenyl}-urea]"
3,63,"CCCC1(c2ccccc2)NC(=O)N(CC(=O)c2ccc(NC(=O)CC(C)C)cc2F)C1=O (racemic) [Example 5, (±)-N-{4-[2-(2,5-Dioxo-4-phenyl-4-propyl-imidazolidin-1-yl)-acetyl]-3-fluoro-phenyl}-3-methyl-butyramide]"
4,78,"CCC1(c2ccccc2)NC(=O)N(CC(=O)c2ccc(NC(=O)CC(C)C)cc2F)C1=O (racemic) [Example 13, (±)-N-{4-[2-(4-Ethyl-2,5-dioxo-4-phenyl-imidazolidin-1-yl)-acetyl]-3-fluoro-phenyl}-3-methyl-butyramide]"
5,58,"Cc1ccc(C2(c3ccccc3)NC(=O)N(CC(O)c3ccc(NC(=O)CC(C)C)cc3)C2=O)cc1 (racemic) [Example 14, (±)-N-{4-[2-(2,5-Dioxo-4-phenyl-4-p-tolyl-imidazolidin-1-yl)-1-hydroxy-ethyl]-phenyl}-3-methyl-butyramide]"
6,32,"CCC1(c2ccccc2)NC(=O)N(Cc2ccc(NC(=O)Nc3c(C)noc3C)cc2)C1=O (racemic) [Example 19, (±)-1-(3,5-Dimethyl-isoxazol-4-yl)-3-[4-(4-ethyl-2,5-dioxo-4-phenyl-imidazolidin-1-ylmethyl)-phenyl]-urea]"
7,97,"CCCC1(c2ccccc2)NC(=O)N(CC(=O)c2ccc(NC(=O)Cc3c(C)noc3C)cc2)C1=O (racemic) [Example 21, (±)-2-(3,5-Dimethyl-isoxazol-4-yl)-N-{4-[2-(2,5-dioxo-4-phenyl-4-propyl-imidazolidin-1-yl)-acetyl]-phenyl}-acetamide]"
8,96,"CCCC1(c2ccccc2)NC(=O)N(CC(=O)c2ccc(NC(=O)C(CC)CC)cc2)C1=O (racemic) [Example 24, (±)-N-{4-[2-(2,5-Dioxo-4-phenyl-4-propyl-imidazolidin-1-yl)-acetyl]-phenyl}-2-ethyl-butyramide]"
9,44,"Cc1ccc(C2(c3ccccc3)NC(=O)N(CC(=O)c3ccc(NC(=O)Nc4ccccc4F)cc3)C2=O)cc1 (racemic) [Example 39, (±)-1-{4-[2-(2,5-Dioxo-4-phenyl-4-p-tolyl-imidazolidin-1-yl)-acetyl]-phenyl}-3-(2-fluoro-phenyl)-urea]"
10,70,"COc1ccccc1CC(=O)Nc1ccc(C(=O)CN2C(=O)NC(c3ccccc3)(c3ccc(C)cc3)C2=O)cc1 (racemic) [Example 40, (±)-N-{4-[2-(2,5-Dioxo-4-phenyl-4-p-tolyl-imidazolidin-1-yl)-acetyl]-phenyl}-2-(2-methoxy-phenyl)-acetamide]"
11,99,"Cc1ccc(C2(c3ccccc3)NC(=O)N(CC(=O)c3ccc(NC(=O)Cc4c(C)noc4C)cc3)C2=O)cc1 (racemic) [Example 42, (±)-2-(3,5-Dimethyl-isoxazol-4-yl)-N-{4-[2-(2,5-dioxo-4-phenyl-4-p-tolyl-imidazolidin-1-yl)-acetyl]-phenyl}-acetamide]"
12,56,"CCCC1(c2ccccc2)NC(=O)N(CC(=O)c2ccc(NC(=O)Nc3ccccc3F)cc2)C1=O (racemic) [Example 44, (±)-1-{4-[2-(2,5-Dioxo-4-phenyl-4-propyl-imidazolidin-1-yl)-acetyl]-phenyl}-3-(2-fluoro-phenyl)-urea]"
13,83,"CC(C)CC(=O)Nc1ccc(C(=O)CN2C(=O)NC(c3ccccc3)(c3ccccc3)C2=O)c(F)c1 [Example 9, N-{4-[2-(2,5-Dioxo-4,4-diphenyl-imidazolidin-1-yl)-acetyl]-3-fluoro-phenyl}-3-methyl-butyramide]"
14,42,"CCC(=O)Nc1ccc(C(=O)CN2C(=O)NC(c3ccc(F)cc3)(c3ccc(F)cc3)C2=O)cc1 [Example 12, N-(4-{2-[4,4-Bis-(4-fluoro-phenyl)-2,5-dioxo-imidazolidin-1-yl]-acetyl}-phenyl)-propionamide]"
15,83,"CCCC1(c2ccccc2)NC(=O)N(CC(=O)c2ccc(NC(=O)C3CCOC3)cc2)C1=O (centres unmarked) [Example 22, Tetrahydro-furan-3-carboxylic acid {4-[2-(2,5-dioxo-4-phenyl-4-propyl-imidazolidin-1-yl)-acetyl]-phenyl}-amide]"
16,36,"CCCC1(c2ccccc2)NC(=O)N(CC(=O)c2ccc(NC(=O)C3CCCN3)cc2)C1=O (centres unmarked) [Example 23, Pyrrolidine-2-carboxylic acid {4-[2-(2,5-dioxo-4-phenyl-4-propyl-imidazolidin-1-yl)-acetyl]-phenyl}-amide]"
17,90,"CCC(CC)C(=O)Nc1ccc(C(=O)CN2C(=O)NC(c3ccccc3)(c3ccccc3)C2=O)c(F)c1 [Example 34, N-{4-[2-(2,5-Dioxo-4,4-diphenyl-imidazolidin-1-yl)-acetyl]-3-fluoro-phenyl}-2-ethyl-butyramide]"
